Data on five compounds can be found in patent publication US7202276B2, “Use of 13-HODE as a regulator of vascular biocompatibility and an inhibitor of cell hyperplasia” (1411198 Ontario Limited, priority 2000, dated 2007).

Where two headings read alike, the source gives them in different places. A value given as a limit tells only on which side of the number the result lay.

For series [1], the system named is platelet/injured VW interactions. As to conditions: 3.2 gm daily for 30 days; cited from earlier work.
For series [2] the following is noted: 3.2 gm daily (20 capsules) for 30 days; cited from earlier work.
Series [3] has as its system VW intimal hyperplasia of injured carotid arteries. Briefly: Intimal hyperplasia after carotid artery pressure injury in rabbits. In kind it is in vivo, New Zealand white rabbits. As to conditions: 7 day course of 100 μg/kg/day, in either corn oil or ethyl-EPA, p<0.001. Here is the method:
(§1) New Zealand white rabbits (half males/half females; 2.5–2.9 kg) were used throughout. Rabbits were treated with 100, 400 or 1000 μg/kg/day of purified 13-HODE suspended in corn oil or ethyl-eicosapentaenoic acid (EPA), or with an equivolume of either suspending vehicle (total volume 1 ml) for 7 days. Serial blood samples were collected before, during and after treatment to assess the levels of 13-HODE in plasma. On day 7, the treatments were stopped. At that time, the rabbits were anaesthetised with a combination of Atravet, Ketamine, Vetrepham and glycopyrolate, given subcutaneously. Both carotid arteries of anaesthetised rabbits were isolated between 2 temporary ligatures, first by applying the proximal ligature, then allowing the blood to drain from the segment, and then applying the distal ligature. A 24-gauge angiocath attached to tubing filled with sterile saline and connected to a pressure manometer, was inserted into the isolated segment. Then the segment was filled with the saline to a pressure of 600 mm Hg which was maintained for 5 minutes. The pressure was relieved, and the angiocath and ligatures were removed, thereby allowing for blood flow restoration. Cessation of bleeding from the needle puncture site was achieved within 3 minutes without any manual manipulation. The incisions were sutured closed with 000 proline. […]

A short description of series [4]: Cell free plasma 13-HODE levels in rabbits treated orally with 13-HODE. The format is in vivo, New Zealand white rabbits. Here is the method:
New Zealand white rabbits (half males/half females; 2.5–2.9 kg) were used throughout. Rabbits were treated with 100, 400 or 1000 μg/kg/day of purified 13-HODE suspended in corn oil or ethyl-eicosapentaenoic acid (EPA), or with an equivolume of either suspending vehicle (total volume 1 ml) for 7 days. Serial blood samples were collected before, during and after treatment to assess the levels of 13-HODE in plasma. On day 7, the treatments were stopped. At that time, the rabbits were anaesthetised with a combination of Atravet, Ketamine, Vetrepham and glycopyrolate, given subcutaneously. Both carotid arteries of anaesthetised rabbits were isolated between 2 temporary ligatures, first by applying the proximal ligature, then allowing the blood to drain from the segment, and then applying the distal ligature. A 24-gauge angiocath attached to tubing filled with sterile saline and connected to a pressure manometer, was inserted into the isolated segment. Then the segment was filled with the saline to a pressure of 600 mm Hg which was maintained for 5 minutes. The pressure was relieved, and the angiocath and ligatures were removed, thereby allowing for blood flow restoration. Cessation of bleeding from the needle puncture site was achieved within 3 minutes without any manual manipulation. The incisions were sutured closed with 000 proline. The rabbits were injected intramuscularly with Temgesic to minimize any pain and with 12.5 mg Baytril as an antibiotic, and then allowed to recover. This injury procedure results in endothelial denudation and the exposure of a thrombogenic surface within 1 hour of restoration of blood flow, followed by SMC proliferation and intimal hyperplasia, which plateaus at □ 4 weeks and which is sustained for ≧12 weeks (Buchanan M R, Brister S J: 1998: Buchanan M R et al. 1999).
Two, four or twelve weeks later, the rabbits were re-anaesthetised and their injured carotid arteries were again isolated. Segments of injured and uninjured carotid artery were harvested and processed histologically to assess VW hyperplasia. Other VW segments and blood samples were collected and processed for VW and plasma 13-HODE levels.

Series [5] in a line: Stability of 13-HODE dosage forms. In kind it is physicochemical. As to conditions: dissolved into a triglyceride oil carrier or an ester. Here is the method: A real problem is presented by the fact that active daily doses of 13-HODE are in the 50 to 1,000 μg/kg/day range. […] That translates into a 7 mg/day dose for a 70 kg person. Since doses for humans are often considerably lower than doses for animals because of a weight/body surface area scaling, a daily dose of as little as 5 mg or less is really possible. Formulating an oily liquid is such small doses is a problem. It could be absorbed into tabletting materials and tabletted and coated, or micro-encapsulated by methods well known to those skilled in the art. […] Other triglyceride oils such as vegetable oil, including sunflower, safflower, soy, evening primrose, borage, coconut or palm oil, or cottonseed, rapeseed, olive, fish body or fish liver oils may all be used for this purpose. Particularly useful esters for this purpose are esters of fatty acids with 16–26 carbon atoms and one or more double bonds in the chain.

Series [6] in a line: Vessel wall (VW) 13-HODE levels in rabbits treated orally with 13-HODE. The format is in vivo, New Zealand white rabbits. As to conditions: suspended in ethyl-EPA, all treatment levels. Here is the method:
as §1

The conditions of series [7]: stroke, myocardial infarction, transient ischemic attacks; cited from earlier work.
A further series concerns intimal SMC hyperplasia. As to conditions: 1 mg/kg/day for 7 days before VW injury, 4 weeks after VW injury; cited from earlier work.
The test system of series [8] is platelet/injured VW interactions. Conditions: dose comparable to that used clinically; cited from earlier work.
The subject of the next series is Sarcoma 180 tumors. Conditions: given orally; cited from earlier work.

For the compound `CCCCC/C=C\C/C=C\CCCCCCCC(=O)O` [linoleic acid, Octa-deca-9Z, 12Z-dienoic acid], the “decrease in platelet/injured VW interactions” value in [1] was greater than 2 fold. In addition, the “increase in VW 13-HODE levels” value in [2] is given as 2 fold.

`CCCCCC(O)/C=C/C=C\CCCCCCCC(=O)O` (stereo not shown) [13-HODE, 13-hydroxyoctadeca-9Z, 11E-dienoic acid]: in series [3], the “intimal VW hyperplasia” value is “significantly inhibited”. In [4] (1,000 μg/kg/day oral), the “time to significantly elevated cell-free plasma 13-HODE level” value is reported as no more than 3 days. Moreover, the “time cell-free plasma 13-HODE level remained elevated” value in series [4] (1,000 μg/kg/day oral, treatment stopped after 7 days) came to 4 weeks. Besides, the “effect on plasma 13-HODE levels of increasing the dose” value in series [4] (1,000 μg/kg/day vs 100 μg/kg/day, corn oil) is “no further effect”. The “increase in the plasma 13-HODE levels” value in series [4] (after 7 days of oral 100 μg/kg/day, suspended in corn oil) is recorded as “three-fold increase”. Also, in [4] (orally administered), the half life result is “long half life” and the oral absorption result is recorded as “well absorbed”. Moreover, in series [4] (suspended in ethyl-EPA, all treatment levels), the “absolute levels of plasma 13-HODE, compared with corn oil” value is listed as “lower in all treatment levels tested”. For the same compound, in series [5], the “stability of the dosage form” value is “stable without degradation”. The “absolute levels of VW 13-HODE, compared with corn oil” value in [6] was “somewhat lower at all treatment levels tested”.

As to `CC(=O)Oc1ccccc1C(=O)O` [ASA], the overall risk reduction in series [7] is on record as roughly 25%.

With `OCCN(CCO)c1nc(N2CCCCC2)c2nc(N(CCO)CCO)nc(N3CCCCC3)c2n1` [Persantine], in the series on intimal SMC hyperplasia, the SMC hyperplasia entry is “inhibited”. For the same compound, the “decrease in platelet/injured VW interactions” value in series [8] was greater than 2 fold.

Regarding `CCCCC/C=C\C=C\C(O)CCCCCCCC(=O)O` (stereo not shown) [9-HODE, 9-hydroxy-10(E)-12(Z) octadecadienoic acid], the “minimum effective dose for inhibiting the rate of tumour growth” value in the series on Sarcoma 180 tumors is 55 mg/kg/day.
